Laboratory results as given in patent publication US7625917B2, “Thiolesters and uses thereof” (priority 1998, dated 2009).
Like-named read-outs stand apart in the source and are kept apart here.

Experiments:
HIV-1RF = assay: XTT cytoprotection assay (antiviral activity); format: cell-based
Description: One exemplary means to determine antiviral activity is with CEM-SS cells and virus (e.g., HIV-1RF) (MOI=0.01) using the XTT (2,3-bis[2-methoxy-4-nitro-5-sulfophenyl]-5-[(phenylamino)carbonyl]-2H-tetrazolium hydroxide) cytoprotection assay, as described by Rice (1993) PNAS 90:9721-9724, and Rice (1997) Antimicrob. Agents Chemother. 41:419-426. Briefly, cells are infected with HIV-1 RF (or other virus to be tested) in the presence of various dilutions of test compounds (thiolesters and controls). The cultures are incubated for seven days. During this time control cultures without protective compounds (i.e., compounds with anti-viral activity) replicate virus, induce syncytia, and result in about 90% cell death. The cell death is measured by XTT dye reduction. XTT is a soluble tetrazolium dye that measures mitochondrial energy output, similar to MTT. Positive controls using dextran sulfate (an attachment inhibitor) or 3′-Azido-2′-3′-dideoxythymidine, AZT (a reverse transcriptase inhibitor) are added to each assay. Individual assays are done in duplicate using a sister plate method.
Effective antiviral concentrations providing 50% cytoprotection (EC50), and cellular growth inhibitory concentrations causing 50% cytotoxicity (IC50) are calculated.

[1] = target: T1, recombinant HIV-1 NCp7 protein (Human immunodeficiency virus type 1 group M subtype B, UniProt P03347); assay: Trp37 zinc finger fluorescence (zinc ejection) assay; format: biochemical
T1 construct: recombinant HIV-1 NCp7 protein
Description: Zinc finger reactivity was measured using a Zn specific fluorochrome, TSQ, N-(6-methoxy-8-quinolyl)-p-toluenesulfonamide, assay or a Trp37 zinc finger fluorescence assay. Fluorescent measurements of the Trp37 residue in the C-terminal finger of recombinant HIV-1 NCp7 protein were performed as described by Rice (1995) Science 270:1194-1197; Rice (1997) Antimicrob. Agents Chemother. 41:419-426. Measurement of Zn ejection from both fingers was measured using the Zn-selective fluorchrome probe TSQ (Molecular Probes, Eugene Oreg.) as described by Rice (1996) J. Med. Chem 39:3606-3616. […] Briefly, 50 nM NCp7 was treated with test compounds for 1 hour at RT in […] buffer containing 10% glycerol and 50 mM Tris-HCl (pH 7.5). Labeled oligomer (0.1 picomole, end labeled [^32P] was added in an equal volume of buffer containing 10% glycerol, 50 mM Tris-HCl (pH 7.5), 400 mM KCl and 40 mM MgCl2. The reaction was continued for 15 min at room temperature, and a total of […] (or ¼ of the total reaction volume) was separated on nondenaturing 4.5% polyacrylamide gels in 0.5× Tris-Borate electrophoresis buffer. NCp7-oligomer complexes were visualized by autoradiography.
Changes in the intrinsic fluorescence of aromatic protein moieties are commonly used to monitor a reaction which involves a change in protein conformation. In the present invention, fluorescence can be used to monitor the loss of metal ion from a zinc finger, e.g., the loss of zinc from a CCHC retroviral zinc finger protein, after contact with a thiolester of the invention. The intrinsic fluorescence of Trp37 in the second zinc finger of HIV-1 NC protein has been used to monitor nucleic acid binding and conformation of the zinc finger complex (see, Summers (1992) supra).
Zinc ejection is measured by the ability of compounds to chemically attack the cysteines in purified NCp7 protein resulting in a loss of fluorescence due to the. movement of the tryptophan 37 residue […] position on the protein. Zinc ejection is measured and expressed as either percent decrease in total fluorescence or decrease in relative fluorescence units per min during a 30 min assay (RFU/min). A thiolester is considered within the scope of the invention if any amount of zinc ejection is detected.

CEM-SS cells = assay: cells; format: cell-based; details: for cellular toxicity (in words): high test dose of 316 μM
Description: Agents Chemother. […] Briefly, cells are infected with HIV-1 RF (or other virus to be tested) in the presence of various dilutions of test compounds (thiolesters and controls). The cultures are incubated for seven days. […] The cell death is measured by XTT dye reduction. XTT is a soluble tetrazolium dye that measures mitochondrial energy output, similar to MTT. Positive controls using dextran sulfate (an attachment inhibitor) or 3′-Azido-2′-3′-dideoxythymidine, AZT (a reverse transcriptase inhibitor) are added to each assay. Individual assays are done in duplicate using a sister plate method.

[2] = Table 10, average decrease in relative fluorescence units over 30 min
[3] = Table 10, 50% cytotoxicity, read-out: IC50
[4] = Table 5, average decrease in relative fluorescence units over 30 min
[5] = Table 5, 50% cytotoxicity, read-out: IC50
[6] = Table 3, average decrease in relative fluorescence
[7] = Table 3, 50% cytotoxicity, read-out: IC50
[8] = Table 4, 50% cytotoxicity, read-out: IC50
[9] = read-out: EC50 (concentration inhibiting 50% virus replication)
[10] = Table 6, average decrease in relative fluorescence units over 30 min
[11] = Table 6, 50% cytotoxicity, read-out: IC50

CC(=O)NS(=O)(=O)c1ccc(NC(=O)c2ccccc2NC(=O)CCCC[n+]2ccccc2)cc1 [Compound 56]
antiviral activity (in words) (HIV-1RF): inactive | Zinc Finger Reactivity RFU/min [1, 2]: 2.6 RFU/min | IC50 (CEM-SS cells; [3]): >316 µM

CC(=O)NS(=O)(=O)c1ccc(NC(=O)c2ccccc2NC(=O)CCCl)cc1 [Compound 37, N-[2-(3-chloro-propionamido)benzoyl]sulfacetamide]
antiviral activity (in words) (HIV-1RF): neither had appreciable antiviral activity | zinc finger reactivity (in words) [1]: modest zinc finger reactivity | Zinc Finger Reactivity RFU/min [1, 4]: 2.0 RFU/min | IC50 (CEM-SS cells; [5]): >316 µM

O=C(Nc1ccc(S(=O)(=O)c2ccc(NC(=O)c3ccccc3SSc3ccccc3C(=O)Nc3ccc(S(=O)(=O)c4ccc(NC(=O)c5ccc([N+](=O)[O-])cc5)cc4)cc3)cc2)cc1)c1ccc([N+](=O)[O-])cc1 [Compound 32 D]
EC50 (HIV-1RF; Table 3, read-out: EC50): 78 µM | Zinc Finger Reactivity RFU/min [1, 6]: 2.9 RFU/min | IC50 (CEM-SS cells; [7]): > 316 µM

CC(=O)Nc1ccc(S(=O)(=O)Nc2ccc(S(=O)(=O)c3ccc(NC(=O)c4ccccc4SSc4ccccc4C(=O)Nc4ccc(S(=O)(=O)c5ccc(NS(=O)(=O)c6ccc(NC(C)=O)cc6)cc5)cc4)cc3)cc2)cc1 [Compound 28 D]
EC50 (HIV-1RF; Table 3, read-out: EC50): 1 µM | Zinc Finger Reactivity RFU/min [1, 6]: 5.9 RFU/min | IC50 (CEM-SS cells; [7]): 12.7 µM

CC(=O)NS(=O)(=O)c1ccc(NC(=O)c2ccccc2SC(=O)c2ccccc2)cc1 [Compound 41]
EC50 (HIV-1RF; Table 5, read-out: EC50): 2.6 µM | Zinc Finger Reactivity RFU/min [1, 4]: 2.2 RFU/min | IC50 (CEM-SS cells; [5]): 45.7 µM | IC50 (CEM-SS cells; read-out: IC50 range): ~50 µM

Nc1cccc(S(=O)(=O)c2cccc(NC(=O)c3ccccc3SSc3ccccc3C(=O)Nc3cccc(S(=O)(=O)c4cccc(N)c4)c3)c2)c1 [Compound 35]
zinc finger reactivity / zinc ejection rate [1]: 0.92 RFU/min | IC50 (CEM-SS cells; [8]): 81.5 µM

NS(=O)(=O)c1ccc(CNC(=O)c2ccccc2SSc2ccccc2C(=O)NCc2ccc(S(N)(=O)=O)cc2)cc1 [Compound 23 D, N,N′-(2,2′-dithiodibenzoyl)-bis-4-(aminomethyl)benzene-sulfonanide]
EC50 (HIV-1RF; Table 2, read-out: EC50): 0.33 µM | zinc finger reactivity / zinc ejection rate [1]: 3.3 RFU/min | IC50 (CEM-SS cells; read-out: toxicity / IC50): 19.4 µM

Nc1ccc(S(=O)(=O)c2ccc(NC(=O)c3ccccc3SSc3ccccc3C(=O)Nc3ccc(S(=O)(=O)c4ccc(N)cc4)cc3)cc2)cc1 [Compound 26 D]
EC50 (HIV-1RF; Table 3, read-out: EC50): 4.3 µM | EC50 (HIV-1RF; [9]): 4.3 µM | zinc finger reactivity / zinc ejection rate [1]: 3.3 RFU/min | Zinc Finger Reactivity RFU/min [1, 6]: 3.3 RFU/min | IC50 (CEM-SS cells; [7]): < 316 µM

CC(=O)Nc1ccc(S(=O)(=O)c2ccc(NC(=O)c3ccccc3SSc3ccccc3C(=O)Nc3ccc(S(=O)(=O)c4ccc(NC(C)=O)cc4)cc3)cc2)cc1 [Compound 27 D]
EC50 (HIV-1RF; Table 3, read-out: EC50): 1.5 µM | EC50 (HIV-1RF; [9]): 1.5 µM | zinc finger reactivity / zinc ejection rate [1]: 5.9 RFU/min | Zinc Finger Reactivity RFU/min [1, 6]: 5.9 RFU/min | IC50 (CEM-SS cells; read-out: toxicity / IC50): 160 µM

O=C(Nc1ccc(S(=O)(=O)c2ccc([N+](=O)[O-])cc2)cc1)c1ccccc1SSc1ccccc1C(=O)Nc1ccc(S(=O)(=O)c2ccc([N+](=O)[O-])cc2)cc1 [Compound 31 D]
EC50 increase vs compound 26 (HIV-1RF): 2.6 fold | EC50 (HIV-1RF; [9]): 12.2 µM | Zinc Finger Reactivity RFU/min [1, 6]: 2.9 RFU/min | IC50 (CEM-SS cells; [7]): > 316 µM | cellular toxicity (in words) (CEM-SS cells): non-toxic | cellular toxicity (in words) (CEM-SS cells; listed as 31): no toxicity

O=C(Nc1ccc(S(=O)(=O)c2ccc(NS(=O)(=O)Cc3ccccc3[N+](=O)[O-])cc2)cc1)c1ccccc1SSc1ccccc1C(=O)Nc1ccc(S(=O)(=O)c2ccc(NS(=O)(=O)Cc3ccccc3[N+](=O)[O-])cc2)cc1 [Compound 34 D]
antiviral activity (in words) (HIV-1RF): significant antiviral activity | EC50 (HIV-1RF; [9]): 12.3 µM | Zinc Finger Reactivity RFU/min [1, 6]: 1.5 RFU/min | IC50 (CEM-SS cells; [7]): > 316 µM | cellular toxicity (in words) (CEM-SS cells): no toxicity

O=C(CCCCBr)Sc1ccccc1C(=O)Nc1ccc(S(=O)(=O)c2ccc([N+](=O)[O-])cc2)cc1 [Compound 46]
EC50 (HIV-1RF; Table 6, read-out: EC50 %): 1.6 µM | Zinc Finger Reactivity RFU/min [1, 10]: 1 RFU/min | IC50 (CEM-SS cells; [11]): 21.7 µM

CC(=O)NS(=O)(=O)c1ccc(NC(=O)c2ccccc2NC(=O)CCl)cc1 [Compound 39]
antiviral activity (in words) (HIV-1RF): completely inactive | Zinc Finger Reactivity RFU/min [1, 4]: 0.3 RFU/min | IC50 (CEM-SS cells; [5]): 202 µM

CC(=O)NS(=O)(=O)c1ccc(NC(=O)c2ccccc2SC(=O)CCC[n+]2ccccc2)cc1 [Compound 54]
EC50 (HIV-1RF; Table 10, read-out: EC50 %): 10.1 µM | Zinc Finger Reactivity RFU/min [1, 2]: 2.2 RFU/min | IC50 (CEM-SS cells; [3]): 175 µM

CC(=O)Nc1cccc(S(=O)(=O)c2cccc(NC(=O)c3ccccc3SSc3ccccc3C(=O)Nc3cccc(S(=O)(=O)c4cccc(NC(C)=O)c4)c3)c2)c1 [Compound 36]
zinc finger reactivity / zinc ejection rate [1]: 2 RFU/min | IC50 (CEM-SS cells; [8]): 5.9 µM

O=c1c2ccccc2sn1-c1ccc(S(=O)(=O)c2ccc([N+](=O)[O-])cc2)cc1 [Compound 31 BITA]
antiviral activity (in words) (HIV-1RF): without antiviral activity | Zinc Finger Reactivity RFU/min [1, 6]: 4.1 RFU/min | IC50 (CEM-SS cells; [7]): > 316 µM

NS(=O)(=O)c1ccc(NC(=O)CNC(=O)c2ccccc2SSc2ccccc2C(=O)NCC(=O)Nc2ccc(S(N)(=O)=O)cc2)cc1 [Compound 25 D, N,N′-(2,2′-dithiodibenzoyl)-bis-4-(glycinamido)benzenesulfonamide]
EC50 (HIV-1RF; Table 2, read-out: EC50): 1.6 µM | zinc finger reactivity / zinc ejection rate [1]: 7.9 RFU/min | IC50 (CEM-SS cells; Table 2, 50% cytotoxicity, read-out: IC50): 17.6 µM

O=c1c2ccccc2sn1-c1ccc(S(=O)(=O)c2ccc(NS(=O)(=O)Cc3ccccc3[N+](=O)[O-])cc2)cc1 [Compound 34 BITA]
antiviral activity (in words) (HIV-1RF): significant antiviral activity | EC50 (HIV-1RF; Table 3, read-out: EC50): 3.2 µM | Zinc Finger Reactivity RFU/min [1, 6]: 2 RFU/min | IC50 (CEM-SS cells; [7]): 59.5 µM

CC(=O)NS(=O)(=O)c1ccc(NC(=O)c2ccccc2SC(=O)CCCCC[n+]2ccccc2)cc1 [Compound 55]
EC50 (HIV-1RF; Table 10, read-out: EC50 %): 10.5 µM | Zinc Finger Reactivity RFU/min [1, 2]: 1.9 RFU/min | IC50 (CEM-SS cells; [3]): 69.7 µM

O=C(CCCCBr)Sc1ccccc1C(=O)Nc1ccc(S(=O)(=O)c2ccc(NS(=O)(=O)Cc3ccccc3[N+](=O)[O-])cc2)cc1 [Compound 49]
Zinc Finger Reactivity RFU/min [1, 10]: 1.9 RFU/min | IC50 (CEM-SS cells; [11]): > 316 µM

CC(=O)Nc1ccc(S(=O)(=O)Nc2ccc(S(=O)(=O)c3ccc(-n4sc5ccccc5c4=O)cc3)cc2)cc1 [Compound 28 BITA]
EC50 (HIV-1RF; Table 3, read-out: EC50): 9.6 µM | Zinc Finger Reactivity RFU/min [1, 6]: 7.9 RFU/min | IC50 (CEM-SS cells; [7]): 188 µM

CC(=O)NS(=O)(=O)c1ccc(NC(=O)c2ccccc2SC(=O)CCCC[n+]2cccc(Cl)c2)cc1 [Compound 57]
EC50 (HIV-1RF; Table 10, read-out: EC50 %): 54 µM | Zinc Finger Reactivity RFU/min [1, 2]: 0.2 RFU/min | IC50 (CEM-SS cells; [3]): 264 µM

CC(=O)NS(=O)(=O)c1ccc(NC(=O)c2cccc(NC(=O)CCCl)c2)cc1 [Compound 38]
antiviral activity (in words) (HIV-1RF): neither had appreciable antiviral activity | EC50 (HIV-1RF; Table 5, read-out: EC50): 38 µM | zinc finger reactivity (in words) [1]: modest zinc finger reactivity | Zinc Finger Reactivity RFU/min [1, 4]: 3.9 RFU/min | IC50 (CEM-SS cells; [5]): 103 µM

COc1ccc(C(=O)Sc2ccccc2C(=O)Nc2ccc(S(=O)(=O)NC(C)=O)cc2)cc1 [Compound 42]
EC50 (HIV-1RF; Table 5, read-out: EC50): 2.8 µM | Zinc Finger Reactivity RFU/min [1, 4]: 3.5 RFU/min | IC50 (CEM-SS cells; [5]): 43.7 µM | IC50 (CEM-SS cells; read-out: IC50 range): ~50 µM
